Values after ≈ are worked out from the molar mass of the structure shown.
Key:
[1] = system: Candida tropicalis; experiment: Antifungal activity against Candida tropicalis GIM 2.183 assessed as inhibition of fungal growth by NCCLS protocol based method; type: functional
[2] = system: Aspergillus fumigatus; experiment: Antifungal activity against Aspergillus fumigatus CGMCC 3.7795 assessed as inhibition of fungal growth by NCCLS protocol based method; type: functional
[3] = system: Cryptococcus neoformans; experiment: Antifungal activity against Cryptococcus neoformans GIM 2.209 assessed as inhibition of fungal growth by NCCLS protocol based method; type: functional
[4] = system: Candida albicans; experiment: Antifungal activity against Candida albicans SC5314 assessed as inhibition of fungal growth by NCCLS protocol based method; type: functional
[5] = system: Candida albicans; experiment: Antifungal activity against Candida albicans GIM 2.194 assessed as inhibition of fungal growth by NCCLS protocol based method; type: functional
[6] = Metabolic stability in human liver microsomes assessed as half life at 100 uM pre-incubated for 10 mins followed by NADPH-regenerating system and measured upto 60 mins by LC-MS/MS analysis; type: ADME, Microsome; conditions: time <=70 min
[7] = system: Candida albicans; experiment: Antifungal activity against fluconazole resistant Candida albicans CaR assessed as inhibition of fungal growth by NCCLS protocol based method; type: functional
[8] = system: Candida albicans; experiment: Antifungal activity against fluconazole and itraconazole resistant Candida albicans 17# assessed as inhibition of fungal growth by NCCLS protocol based method; type: functional

Row | SMILES | MIC [1] [µg/mL] | MIC [2] [µg/mL] | MIC [3] [µg/mL] | MIC [4] [µg/mL] | MIC [5] [µg/mL] | half-life at 100 µM [6] [min] | MIC [7] [µg/mL] | MIC [8] [µg/mL]
1 | Fc1ccc(C2(Cn3cncn3)COC(c3ccc(-c4ccccc4F)cc3)=N2)cc1 (centres undefined) | 0.06 (≈ 0.144 µM) | > 64 | > 64 | < 0.03 | < 0.03 | – | – | –
2 | Fc1ccc(C2(Cn3cncn3)COC(c3ccc(-c4ccoc4)cc3)=N2)cc1 (centres undefined) | 0.125 (≈ 0.322 µM) | 0.25 (≈ 0.644 µM) | 0.25 (≈ 0.644 µM) | < 0.03 | < 0.03 | 18.6 | – | –
3 | FC(F)(F)Oc1ccc2cc(C3=NC(Cn4cncn4)(c4ccccc4)CO3)sc2c1 (centres undefined) | > 16 | > 64 | > 64 | 0.06 (≈ 0.135 µM) | > 16 | – | – | –
4 | N#Cc1ccc2sc(C3=NC(Cn4cncn4)(c4ccccc4)CO3)cc2c1 (centres undefined) | > 16 | > 64 | > 64 | > 16 | > 16 | – | – | –
5 | Fc1ccc(C2(Cn3cncn3)COC(c3cc4ccc(Br)cc4s3)=N2)c(F)c1 (centres undefined) | < 0.03 | > 64 | 0.5 (≈ 1.05 µM) | < 0.03 | < 0.03 | – | – | –
6 | c1ccc(COc2ccc(C3=NC(Cn4cncn4)(c4ccccc4)CO3)cc2)cc1 (centres undefined) | > 64 | > 64 | > 64 | > 16 | > 16 | – | – | –
7 | Clc1ccc2sc(C3=NC(Cn4cncn4)(c4ccccc4)CO3)cc2c1 (centres undefined) | > 16 | 32 (≈ 81 µM) | > 64 | 0.5 (≈ 1.27 µM) | > 16 | – | – | –
8 | Fc1ccc(C2(Cn3cncn3)COC(c3cc4ccc(Br)cc4s3)=N2)cc1 (centres undefined) | 0.13 (≈ 0.284 µM) | 2 (≈ 4.37 µM) | 1 (≈ 2.19 µM) | < 0.03 | 0.06 (≈ 0.131 µM) | – | 0.5 (≈ 1.09 µM) | > 64
9 | c1ccc(C2(Cn3cncn3)COC(c3cc4ccccc4o3)=N2)cc1 (centres undefined) | > 64 | 8 (≈ 23.2 µM) | 2 (≈ 5.81 µM) | > 16 | > 16 | – | – | –
10 | FC(F)(F)Oc1ccc2sc(C3=NC(Cn4cncn4)(c4ccccc4)CO3)cc2c1 (centres undefined) | 0.25 (≈ 0.563 µM) | > 64 | > 64 | < 0.03 | 0.06 (≈ 0.135 µM) | – | – | –
11 | Fc1cc(F)cc(C2(Cn3cncn3)COC(c3cc4ccc(Br)cc4s3)=N2)c1 (centres undefined) | 0.125 (≈ 0.263 µM) | > 64 | 0.25 (≈ 0.526 µM) | 0.06 (≈ 0.126 µM) | 0.06 (≈ 0.126 µM) | – | – | –
12 | Fc1ccc(C2(Cn3cncn3)COC(c3cc4ccc(F)cc4s3)=N2)cc1 (centres undefined) | 0.25 (≈ 0.631 µM) | 1 (≈ 2.52 µM) | 2 (≈ 5.05 µM) | 0.125 (≈ 0.315 µM) | 0.5 (≈ 1.26 µM) | – | > 64 | > 64
13 | c1ccc(-c2nnc(-c3ccc(C4=NC(Cn5cncn5)(c5ccccc5)CO4)cc3)o2)cc1 (centres undefined) | > 64 | > 64 | > 64 | > 16 | > 16 | – | – | –
14 | Fc1cccc(C2(Cn3cncn3)COC(c3cc4ccc(Cl)cc4s3)=N2)c1 (centres undefined) | 4 (≈ 9.69 µM) | 1 (≈ 2.42 µM) | 0.25 (≈ 0.606 µM) | < 0.03 | < 0.03 | – | > 64 | > 64
15 | c1ccc(-c2ccc(C3=NC(Cn4cncn4)(c4ccccc4)CO3)s2)cc1 (centres undefined) | > 64 | 4 (≈ 10.3 µM) | 0.5 (≈ 1.29 µM) | > 16 | > 16 | – | – | –
16 | c1ccc(C2(Cn3cncn3)COC(c3nc4ccccc4s3)=N2)cc1 (centres undefined) | > 64 | > 64 | > 64 | > 16 | > 16 | – | – | –
17 | Fc1cccc(C2(Cn3cncn3)COC(c3cc4ccc(Br)cc4s3)=N2)c1 (centres undefined) | < 0.03 | 2 (≈ 4.37 µM) | 0.25 (≈ 0.547 µM) | < 0.03 | < 0.03 | – | > 64 | > 64
18 | CC(=O)N1CCN(c2ccc(C3=NC(Cn4cncn4)(c4ccccc4)CO3)cc2)CC1 (centres undefined) | > 64 | > 64 | > 64 | > 16 | > 16 | – | – | –
19 | Brc1ccc2sc(C3=NC(Cn4cncn4)(c4ccccc4)CO3)cc2c1 (centres undefined) | > 16 | > 64 | > 64 | > 16 | > 16 | – | – | –
